Key:
Type in all cases: in vivo, mouse
[1] = test system: BALB/cJ, DBA/2J, C57BL/6J, and 129SvEv mice; experiment: Open field test, strain comparison; conditions: for center measures: chronic fluoxetine 5 or 10 mg/kg/day
Protocol: (§1) For the strain comparison study, 36 male mice of four strains (BALB/cJ, DBA/2J, C57BL/6J, 129SvEv) were subjects for a total of 144 mice. Mice were tested in the OF beginning on day 30 or 33 of chronic fluoxetine treatment. Mice were tested for 15 min on three consecutive days to maximize activity levels. Mice were then tested in the modified FST on day 36 or 37.
(§2) Open field test: Motor activity was quantified in four Plexiglas OF boxes 43 x 43 cm (MED Associates, Georgia, Vt.). Two sets of 16 pulse-modulated infrared photobeams were placed on opposite walls 2.5-cm apart to record x-y ambulatory movements. Activity chambers were computer interfaced for data sampling at 100-ms resolution. The computer defined grid lines that divided each OF into center and surround regions, with each of four lines being 11 cm from each wall. Dependent measures were the number of entries into the center, the distance traveled in the center, total time spent in the center, and distance traveled in the center divided by total distance traveled. Overall motor activity was quantified as the total distance traveled (cm).
(§3) Open field test: For Experiment 1, two-factor ANOVAs with fluoxetine as a between-subject factor and day as a within-subject factor were applied to five measures for each strain: time spent in the center, distance traveled in the center, center distance/total distance traveled, entries into the center, and total distance traveled. Main effects of fluoxetine or significant interactions of fluoxetine and day were resolved using post-hoc ANOVAs with adjusted p-values and/or Newman-Keuls post-hoc tests. Subchronic and chronic experiments in Balb/cJ mice were analyzed using one-way ANOVAs with fluoxetine as a between-subjects factor and Newman-Keuls post-hoc tests for the same variables. Because data deviated substantially from a normal distribution due to low activity levels of Balb/cJ mice, analyses were applied to log transformed data.
(§4) Remaining significant effects of fluoxetine indicate independence between measures of locomotor activity and center measures.

[2] = test system: BALB/cJ, DBA/2J, C57BL/6J, and 129SvEv mice; experiment: Modified forced swim test, strain comparison
Protocol: as §1
Modified forced swim test: Mice were placed into 19 cm diameter plastic buckets which were 23 cm deep filled with 23°-25° C. water, and videotaped for six minutes. Only the last four minutes were scored for four measures: swimming, immobility, climbing, or other. The predominant behavior was recorded every 5 sec. For chronic and subchronic fluoxetine studies in BALB/cJ mice, mice were pre-exposed to the FST for 6 min 24 hours before test day to increase sensitivity for detecting antidepressant behavioral effects (Borsini et al., 1989).
Modified forced swim test: Two-factor ANOVAs with fluoxetine as a between-subjects factor and block (1 min intervals) as a within-subject factor were applied to three different measures: swimming, immobility, and climbing. Significant main effects of fluoxetine and interactions were resolved using post-hoc ANOVAs with adjusted p-values, and/or Newman-Keuls post-hoc tests.

[3] = Serum fluoxetine levels by liquid chromatography with fluorescence detection; conditions: Balb/cJ mice
Protocol: Fluoxetine was a generous gift from Lilly (Indianapolis, Ind.), and was delivered ad libitum in the drinking water. Fluoxetine was dissolved in tap water and changed weekly. For initial strain comparison studies, daily drinking was measured and the concentration of fluoxetine solutions were adjusted to deliver 0, 5, or 10 mg/kg/day of fluoxetine to each strain. For subchronic and chronic studies in BALB/cJ mice, 80-mg/L, 160 mg/L, and 240 mg/L fluoxetine was given, and drinking was recorded throughout the study. Fluoxetine plasma levels were determined by liquid chromatography with fluorescence detection (Suckow et al., 1992) for chronically treated Balb/cJ mice. 5-methoxy-3(1,2,3,6)tetrahydropyridin-4-yl-1H-indole (RU24969) was obtained from Tocris Cookson (Ellisville, Mo.), dissolved in saline, and delivered i.p. (5 ml/kg) with 26 gauge needles. Both drugs were protected from light.

BALB/cJ mice = experiment: Open field test, chronic vs. subchronic fluoxetine
Protocol: For chronic fluoxetine studies in BALB/cJ mice, 60 male BALB/cJ mice were tested in the OF for 30 min on days 19 or 20 of chronic fluoxetine treatment. Mice were then pretested and tested in the modified FST on days 21 and 22, respectively. Animals were then allowed to adapt to being singly housed, and were trained for NIH on days 25-27. Home cage and novel cage testing occurred on days 28 and 29, respectively. Mice were then assessed for PPI on days 34 or 35.
Studies of subchronic fluoxetine were conducted using separate groups of 60 male BALB/cJ mice to prevent fluoxetine treatment from exceeding one week. One group was tested in the OF after one day of subchronic fluoxetine treatment. Mice were then pretested after 6 and tested after 7 days of subchronic fluoxetine treatment in the modified FST. A second group of BALB/cJ mice began fluoxetine treatment after being singly housed. They were then tested in the NIH test after 4 (home) and 5 (novel) days of subchronic fluoxetine treatment. A third group was tested for PPI after one or two days of subchronic fluoxetine treatment.
as §2, §3, §4

[4] = 129SvEv mice, chronic 5 and 10 mg/kg/day, day 1, relative to controls
[5] = BALB/cJ mice, chronic 10 mg/kg/day, relative to 5 mg/kg/day and controls
[6] = chronic 18 mg/kg/day vs controls

Serum fluoxetine levels ([3]; chronic fluoxetine 10 mg/kg/day (80 mg/L drinking water)): 170.3 ± 57.8 ng/mL
Serum fluoxetine levels ([3]; chronic fluoxetine 18 mg/kg/day (160 mg/L drinking water)): 563.4 ± 118.4 ng/mL
Serum fluoxetine levels ([3]; chronic fluoxetine 25 mg/kg/day (240 mg/L drinking water)): 1779.2 ± 364.9 ng/mL
SMILES: CNCCC(Oc1ccc(C(F)(F)F)cc1)c1ccccc1 (stereo not shown) [fluoxetine]
locomotor activity ([1]; 129SvEv mice, chronic 10 mg/kg/day, relative to both other doses on day 1 and to 5 mg/kg/day on day 3): reduced locomotor activity
time in the center ([1]; 129SvEv mice, chronic 5 and 10 mg/kg/day): reduced time in the center relative to control
center entries [1, 4]: reduced
distance traveled in the center [1, 4]: reduced the distance traveled in the center
center measures ([1]; BALB/cJ mice): produced no changes
locomotor activity ([1]; BALB/cJ mice, chronic fluoxetine 5 or 10 mg/kg/day in drinking water, three consecutive days): no changes in locomotor activity
locomotor activity ([1]; C57BL/6J mice, chronic 10 mg/kg/day, relative to controls): reduced locomotor activity overall
entries into the center ([1]; C57BL/6J mice, chronic 5 and 10 mg/kg/day, relative to control): overall reduction in the number of entries into the center
center measures ([1]; DBA/2J mice): produced no changes
locomotor activity ([1]; DBA/2J mice, chronic fluoxetine (10 mg/kg/day vs controls on day 3)): trend towards increased locomotor activity
center/total distance traveled ([1]; any of the four strains, chronic fluoxetine): no effects
immobility [2, 5]: decreased immobility
swimming [2, 5]: increased swimming
sensitivity to chronic treatment in the modified FST across strains ([2]; BALB/cJ, DBA/2J, C57BL/6J, 129SvEv, chronic 5 or 10 mg/kg/day): BALB/cJ was the only strain showing sensitivity
climbing ([2]; chronic fluoxetine 5 or 10 mg/kg/day): No effects
log of center entries (BALB/cJ mice; chronic 10 mg/kg/day): lower values than groups receiving 18 mg/kg/day and 25 mg/kg/day
center entries, without logarithmic transformation (BALB/cJ mice; [6]): made more center entries
center/total distance, without logarithmic transformation (BALB/cJ mice; [6]): trend for higher center/total distance values
log of center distance (BALB/cJ mice; [6]): significantly higher values than controls
log of center distance/log total distance traveled (BALB/cJ mice; [6]): significantly higher values than controls
log of center entries (BALB/cJ mice; [6]): significantly higher values than controls
log of time in the center (BALB/cJ mice; chronic fluoxetine): no significant effect of drug
total locomotor activity (log transformed) (BALB/cJ mice; chronic fluoxetine 10, 18, 25 mg/kg/day, 30 min test): did not alter total locomotor activity
total locomotor activity, without logarithmic transformation (BALB/cJ mice; chronic fluoxetine, all doses): remain unaffected by all doses of drug
any measures in the OF (BALB/cJ mice; subchronic (one day) fluoxetine, untransformed or log transformed): no differences in any measures in the OF
